In patent US4435583A, “2-Halo-substituted monic acid A useful as antibacterial compounds” (Beecham Group p.l.c., priority 1981, dated 1984):
Converted amounts (≈) assume the structure as drawn.

Assays:
Assay type in all cases: cell-based
M. suipneumoniae JF435 = assay: In vitro anti-mycoplasmal MIC; conditions: Friis broth, 0.9% agarose, 6 days, 37° C.
M. suipneumoniae Str.11 = assay: In vitro anti-mycoplasmal MIC; conditions: Friis broth, 0.9% agarose, 6 days, 37° C.
[1] = tested on: M. suipneumoniae J2206/183b; assay: In vitro anti-mycoplasmal MIC; conditions: Friis broth, 0.9% agarose, 6 days, 37° C.
M. suipneumoniae MS16 = assay: In vitro anti-mycoplasmal MIC; conditions: Mesomycoplasma hyopneumoniae, MS16, 144 h, Friis broth, 0.9% agarose, 6 days, 37° C.
[2] = tested on: M. suipneumoniae PW/C/210; assay: In vitro anti-mycoplasmal MIC; conditions: Mesomycoplasma hyopneumoniae, 144 h, Friis broth, 0.9% agarose, 6 days, 37° C.
M. suipneumoniae UCD 1 = assay: In vitro anti-mycoplasmal MIC; conditions: Friis broth, 0.9% agarose, 6 days, 37° C.
M. suipneumoniae TAM 6N = assay: In vitro anti-mycoplasmal MIC; conditions: Friis broth, 0.9% agarose, 6 days, 37° C.
[3] = tested on: M. suipneumoniae ATCC 25095; assay: In vitro anti-mycoplasmal MIC; conditions: Friis broth, 0.9% agarose, 6 days, 37° C.
[4] = tested on: M. suipneumoniae NCTC 10110; assay: In vitro anti-mycoplasmal MIC; conditions: Friis broth, 0.9% agarose, 6 days, 37° C.
M. hyorhinis ATCC 23234 = assay: In vitro anti-mycoplasmal MIC; conditions: Mesomycoplasma hyorhinis, ATCC23234, 144 h, Friis broth, 0.9% agarose, 6 days, 37° C.
[5] = tested on: M. hyosynoviae ATCC 25591; assay: In vitro anti-mycoplasmal MIC; conditions: 144 h, Friis broth, 0.9% agarose, 6 days, 37° C.
M. bovis NCTC 10131 = assay: microbe, parasite or virus in culture; conditions: Mycobacterium tuberculosis variant bovis, NCTC10131, 144 h
[6] = tested on: M. bovigenitalium ATCC 14173; assay: In vitro anti-mycoplasmal MIC; conditions: 144 h, Friis broth, 0.9% agarose, 6 days, 37° C.
M. dispar NCTC 10125 = assay: In vitro anti-mycoplasmal MIC; conditions: 144 h, Friis broth, 0.9% agarose, 6 days, 37° C.
M. gallisepticum S6 = assay: In vitro anti-mycoplasmal MIC; conditions: Mycoplasmoides gallisepticum, 144 h, Friis broth, 0.9% agarose, 6 days, 37° C., read-out: MIC
M. pneumoniae ATCC 15492 = assay: In vitro anti-mycoplasmal MIC; conditions: Mycoplasmoides pneumoniae, ATCC15492, 144 h, Friis broth, 0.9% agarose, 6 days, 37° C., read-out: MIC
Bord. bronchiseptica B08 = assay: MIC against veterinary bacteria; conditions: Bordetella bronchiseptica, B08, 18 h, Diagnostic Sensitivity Test Agar, 37° C., read-out: MIC
Experimental: (§1) The values were determined using a two fold serial dilutions in Diagnostic Sensitivity Test Agar with an inoculum of 10^4 organisms and incubation for 18 hours at 37° C.

Bord. bronchiseptica B09 = assay: MIC against veterinary bacteria; conditions: Diagnostic Sensitivity Test Agar, 18 hours, 37° C.
Experimental: as §1

[7] = tested on: Corynebacterium pyogenes CY1; assay: MIC against veterinary bacteria; conditions: Rhodococcus (subgen. Prescottella) equi, Diagnostic Sensitivity Test Agar, 18 hours, 37° C., read-out: MIC
Experimental: as §1

E. coli E1 = assay: MIC against veterinary bacteria; conditions: Escherichia coli, Diagnostic Sensitivity Test Agar, 18 hours, 37° C., read-out: MIC
Experimental: as §1

E. coli NCTC 10418 = assay: MIC against veterinary bacteria; conditions: Escherichia coli, NCTC10418, Diagnostic Sensitivity Test Agar, 18 hours, 37° C., read-out: MIC
Experimental: as §1

[8] = tested on: Erysipelothrix rhusiopathiae NCTC 8163; assay: MIC against veterinary bacteria; conditions: NCTC8163, Diagnostic Sensitivity Test Agar, 18 hours, 37° C., read-out: MIC
Experimental: as §1

Past. haemolytica PA5 = assay: MIC against veterinary bacteria; conditions: Diagnostic Sensitivity Test Agar, 18 hours, 37° C.
Experimental: as §1

Past. multocida PA1 = assay: MIC against veterinary bacteria; conditions: Diagnostic Sensitivity Test Agar, 18 hours, 37° C.
Experimental: as §1

Past. multocida PA2 = assay: MIC against veterinary bacteria; conditions: Diagnostic Sensitivity Test Agar, 18 hours, 37° C.
Experimental: as §1

S. dublin S7 = assay: MIC against veterinary bacteria; conditions: Salmonella enterica, Diagnostic Sensitivity Test Agar, 18 hours, 37° C., read-out: MIC
Experimental: as §1

S. typhimurium S18 = assay: MIC against veterinary bacteria; conditions: Salmonella enterica, Diagnostic Sensitivity Test Agar, 18 hours, 37° C., read-out: MIC
Experimental: as §1

Staph. aureus 152 = assay: MIC against veterinary bacteria; conditions: Diagnostic Sensitivity Test Agar, 18 hours, 37° C.
Experimental: as §1

Staph. aureus B4 = assay: MIC against veterinary bacteria; conditions: Diagnostic Sensitivity Test Agar, 18 hours, 37° C.
Experimental: as §1

Staph. aureus Oxford [9] = assay: MIC against veterinary bacteria; conditions: Diagnostic Sensitivity Test Agar, 18 hours, 37° C.
Experimental: as §1

Strep. agalactiae SPA1 = assay: MIC against veterinary bacteria; conditions: Diagnostic Sensitivity Test Agar, 18 hours, 37° C.
Experimental: as §1

Strep. dysgalactiae SPD1 = assay: MIC against veterinary bacteria; conditions: Diagnostic Sensitivity Test Agar, 18 hours, 37° C.
Experimental: as §1

[10] = tested on: Strep. suis (group D) SPS11; assay: MIC against veterinary bacteria; conditions: Diagnostic Sensitivity Test Agar, 18 hours, 37° C.
Experimental: as §1

Strep. uberis SPU1 = assay: MIC against veterinary bacteria; conditions: Strep. uberis SPU1; Diagnostic Sensitivity Test Agar; 18 hours, 37° C.
Experimental: as §1

[11] = tested on: Corynebacterium xerosis 9755; assay: MIC against human bacteria; conditions: nutrient agar, 5% chocolated horse blood, 18 hours, 37° C., read-out: MIC
Experimental: (§2) The values were determined by serial dilutions in nutrient agar with 5% chocolated horse blood after incubations for 18 hours at 37° C.

[12] = tested on: Haemophilus influenzae Q1; assay: MIC against human bacteria; conditions: Haemophilus influenzae, Q1, 18 h, nutrient agar, 5% chocolated horse blood, 37° C.
Experimental: as §2

P. mirabilis 889 = assay: MIC against human bacteria; conditions: Proteus mirabilis, nutrient agar, 5% chocolated horse blood, 18 hours, 37° C., read-out: MIC
Experimental: as §2

Staph. aureus Oxford [13] = assay: MIC against human bacteria; conditions: nutrient agar, 5% chocolated horse blood, 18 hours, 37° C.
Experimental: as §2

## CCOC(=O)C(F)=C(C)CC1OCC(CC2OC2C(C)C(C)O)C(O)C1O [Example 1, Ethyl-4-[5S-(2S,3S-epoxy-5S-hydroxy-4S-methylhexyl)-3R, 4R-dihydroxytetrahydropyran-2S-yl]-2-fluoro-3-methylbut-2(Z)-enoate]
M. suipneumoniae JF435
  MIC: 0.5 µg/mL (≈ 1.28 µM)
M. suipneumoniae Str.11
  MIC: 0.5 µg/mL (≈ 1.28 µM)
[1]
  MIC: 0.5 µg/mL (≈ 1.28 µM)
M. suipneumoniae MS16
  MIC: 0.25 µg/mL (≈ 0.64 µM)
[2]
  MIC: 0.25 µg/mL (≈ 0.64 µM)
M. suipneumoniae UCD 1
  MIC: 0.5 µg/mL (≈ 1.28 µM)
M. suipneumoniae TAM 6N
  MIC: 0.5 µg/mL (≈ 1.28 µM)
[3]
  MIC: 0.5 µg/mL (≈ 1.28 µM)
[4]
  MIC: 0.5 µg/mL (≈ 1.28 µM)
M. hyorhinis ATCC 23234
  MIC: 0.25 µg/mL (≈ 0.64 µM)
[5]
  MIC: 0.25 µg/mL (≈ 0.64 µM)
M. bovis NCTC 10131
  MIC: 0.025 µg/mL (≈ 0.064 µM)
[6]
  MIC: 0.025 µg/mL (≈ 0.064 µM)
M. dispar NCTC 10125
  MIC: 0.1 µg/mL (≈ 0.256 µM)
M. gallisepticum S6
  MIC: 10 µg/mL (≈ 25.6 µM)
M. pneumoniae ATCC 15492
  MIC: 5 µg/mL (≈ 12.8 µM)
Bord. bronchiseptica B08
  MIC: 80 µg/mL (≈ 205 µM)
Bord. bronchiseptica B09
  MIC: 20.0 µg/mL (≈ 51.2 µM)
[7]
  MIC: 80 µg/mL (≈ 205 µM)
E. coli E1
  MIC: > 80 µg/mL
E. coli NCTC 10418
  MIC: > 80 µg/mL
[8]
  MIC: 80 µg/mL (≈ 205 µM)
Past. haemolytica PA5
  MIC: 5.0 µg/mL (≈ 12.8 µM)
Past. multocida PA1
  MIC: 1.3 µg/mL (≈ 3.33 µM)
Past. multocida PA2
  MIC: 0.63 µg/mL (≈ 1.61 µM)
S. dublin S7
  MIC: > 80 µg/mL
S. typhimurium S18
  MIC: > 80 µg/mL
Staph. aureus 152
  MIC: 0.63 µg/mL (≈ 1.61 µM)
Staph. aureus B4
  MIC: 0.63 µg/mL (≈ 1.61 µM)
Staph. aureus Oxford [9]
  MIC: 0.63 µg/mL (≈ 1.61 µM)
Strep. agalactiae SPA1
  MIC: 2.5 µg/mL (≈ 6.4 µM)
Strep. dysgalactiae SPD1
  MIC: 1.3 µg/mL (≈ 3.33 µM)
[10]
  MIC: 20.0 µg/mL (≈ 51.2 µM)
Strep. uberis SPU1
  MIC: 0.63 µg/mL (≈ 1.61 µM)
[11]
  MIC: > 100 µg/mL
[12]
  MIC: 0.1 µg/mL (≈ 0.256 µM)
P. mirabilis 889
  MIC: > 100 µg/mL
Staph. aureus Oxford [13]
  MIC: 1.0 µg/mL (≈ 2.56 µM)
